Earlier results, collected in patent US20050136109A1, “Extended release tablet formulations of venlafaxine” (Wyeth, priority 2003, published 2005).
Counter-ions that a name gives are not always drawn.

Conditions: plural daily dosing regimen, immediate release tablets

- Vomiting, patients experiencing: about seventeen
- nausea, patients experiencing: about forty five
Compound: COc1ccc(C(CN(C)C)C2(O)CCCCC2)cc1 (centres unmarked) [venlafaxine hydrochloride, 1-[2-(dimethylamino)-1-(4-methoxyphenyl)ethyl]-cyclo-hexanol]
